The results in this text go back to US20060148712A1, “Monocyte chemoattractant activity of galectin-3” (priority 2000, published 2006).

For assay [1], the system named is human monocytes. Kind of assay: Measurement of Ca2+ influx in monocytes (Indo-1 AM). The class given is cell-based. As for the experimental part: Intracellular concentrations of Ca^2+ were measured by using Indo-1 AM according to a previously described method (Lopez, et al., Cytometry 10:165-73 (1989)). Purified monocytes were resuspended in HBSS containing 1 mM Ca^2+, 1 mM Mg^2+, and 5% autologous serum, and incubated with […] Indo-1 AM for 45 min at 37° C. The cells were washed once, resuspended in the same buffer, and stimuli and inhibitors were added at the time points specified in the Figure Legends. Intracellular Ca^2+ concentration was measured by monitoring light emission at 405 and 485 nm to an excitation wavelength of 355 nm, using an AMINCO-Bowman series 2 luminescence spectrometer (Rochester, N.Y.).

The test system of assay [2] is cultured human peripheral blood macrophages. Nature of the assay: Migration of cultured human peripheral blood macrophages in vitro. The settings on record: 1 μM galectin-3; p<0.05, n=3. It counts as cell-based. An excerpt:
(§1) Human macrophages were obtained by culturing peripheral blood monocytes in vitro for 7 days as previously described (Fantuzzi, et al., Blood 94:875-83 (1999)). Human alveolar macrophages were obtained from bronchoalveolar lavage (BAL) fluid according to a previously described protocol (Sugimoto et al, Am. Rev. Respir. Dis. 139:1329-35 (1989)). The purity of the macrophages was over 90% and the viability was over 99%.
(§2) Monocyte migration was examined by using 96-well micro Boyden chambers with 5 μm-pore size filters (Neuro Probe, Inc., Gaithersburg, Md.) as described previously (Falk, et al., J. Immunol. Meth. 33:239-47 (1980)), Chertov, et al., J. Biol. Chem. 271:2935-40 (1996)). Briefly, after the indicated concentrations of galectin-3 in RPMI 1640 were applied to the lower chambers, purified monocyte suspensions (2.5-5.0×10^4/well) were applied to the upper chambers. After incubation of the chambers for 1 h in a humidified incubator at 5% CO2 and 37° C., the filters were washed once with PBS and processed with Wright stain. The number of monocytes on the bottom side of the filters was counted in 5 to 10 high-power fields. Monocyte migration was calculated from the average numbers of the counted cells and expressed as % of input cells in a well.

The test system of assay [3] is human alveolar macrophages. Kind of assay: Migration of human alveolar macrophages in vitro. The class given is cell-based. The settings on record: two separate experiments; bell-shaped dose-response curves.
Text: as §1, §2

The test system of assay [4] is cell recruitment into mouse air pouches. Kind of assay: Migration assay in vivo (mouse air pouch). More on the design: species or system Balb/c mice. As for the experimental part: The mouse air pouch experiments were performed according to a method described previously (Perretti, et al., J. Immunol. 151:4306-14 (1993)). Briefly, an air pouch was induced on the back of Balb/c mice by injecting 3 ml of air intradermally 2, 4, and 6 days before the experiments. Then, 1 ml of 0.9% sodium chloride (USP grade saline, Baxter Healthcare Corporation, Deerfield, Ill.) containing 1 μM galectin-3 was injected into the pouch. As positive and negative controls, 100 ng/ml of recombinant MCP-1 and diluent only, respectively, were injected. Four h afterwards, recruited cells were recovered by gently lavaging the pouch with 1 ml of PBS containing 1 mM EDTA. Cell number was determined and the distribution of leukocyte types was analyzed after cytospin preparation and Wright staining.

For assay [5], the system named is eosinophils. Nature of the assay: Eosinophil attraction in vitro (not shown). It counts as cell-based.
In assay [6] the test system is lymphocytes. Kind of assay: Lymphocyte migration in vitro. The class given is cell-based.
Assay [7] has as its system neutrophils. Nature of the assay: Neutrophil migration. It counts as cell-based.
In assay [8] the target is T1, CCR-1 (Homo sapiens, UniProt P32246).
T1 construct: Chemokine receptors expressed on monocytes include CCR-1, CCR-2, CCR-5, and CXCR-4; endogenous in cells
T1 sequence (P32246 1-355): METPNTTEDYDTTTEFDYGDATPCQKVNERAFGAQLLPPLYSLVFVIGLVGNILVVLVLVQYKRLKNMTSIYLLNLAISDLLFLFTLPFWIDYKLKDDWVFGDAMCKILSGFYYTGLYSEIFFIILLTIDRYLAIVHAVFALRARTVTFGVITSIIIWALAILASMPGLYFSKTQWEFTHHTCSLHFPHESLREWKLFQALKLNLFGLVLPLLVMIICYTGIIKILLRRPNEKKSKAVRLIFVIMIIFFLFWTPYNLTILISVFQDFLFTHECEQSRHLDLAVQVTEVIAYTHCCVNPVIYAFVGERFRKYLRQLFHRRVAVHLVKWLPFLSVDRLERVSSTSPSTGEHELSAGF
Kind of assay: Immunoprecipitation and immunoblotting with specific antibodies. It counts as binding.

The target in assay [9] is T2, CCR-2 (Homo sapiens, UniProt P41597).
T2 construct: Chemokine receptors expressed on monocytes include CCR-1, CCR-2, CCR-5, and CXCR-4; endogenous in cells
The assay is described as above. The class given is binding.

Assay [10] addresses T3, CCR-5 (Homo sapiens, UniProt P51681).
T3 construct: Chemokine receptors expressed on monocytes include CCR-1, CCR-2, CCR-5, and CXCR-4; endogenous in cells
The assay is described as above. The class given is binding.

Setting [11] is: 1 μM galectin-3, 1 ml into pouch, 4 h, p<0.05, n=4.

T3 sequence (P51681 whole entry): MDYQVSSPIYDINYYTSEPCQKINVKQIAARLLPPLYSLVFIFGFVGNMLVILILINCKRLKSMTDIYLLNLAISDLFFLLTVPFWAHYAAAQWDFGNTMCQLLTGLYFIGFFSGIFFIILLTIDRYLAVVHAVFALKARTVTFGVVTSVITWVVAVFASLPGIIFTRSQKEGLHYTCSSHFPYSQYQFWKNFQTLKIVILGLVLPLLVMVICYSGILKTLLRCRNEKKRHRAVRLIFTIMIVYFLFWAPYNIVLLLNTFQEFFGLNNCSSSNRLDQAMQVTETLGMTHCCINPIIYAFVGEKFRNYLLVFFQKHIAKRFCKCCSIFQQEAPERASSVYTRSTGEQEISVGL
T2 sequence (P41597 whole entry): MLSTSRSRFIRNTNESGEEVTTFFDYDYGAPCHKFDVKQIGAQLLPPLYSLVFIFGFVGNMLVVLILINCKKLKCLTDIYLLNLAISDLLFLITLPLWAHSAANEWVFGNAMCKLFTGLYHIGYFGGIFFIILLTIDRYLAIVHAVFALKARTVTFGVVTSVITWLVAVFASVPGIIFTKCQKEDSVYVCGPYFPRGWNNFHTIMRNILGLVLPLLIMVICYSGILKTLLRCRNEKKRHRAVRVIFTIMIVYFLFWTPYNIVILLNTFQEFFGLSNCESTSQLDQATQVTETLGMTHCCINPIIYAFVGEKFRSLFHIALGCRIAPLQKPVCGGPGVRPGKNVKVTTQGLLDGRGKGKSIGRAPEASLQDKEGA

On to “galectin-3: Recombinant human galectin-3, a 26 kDa beta-galactoside-binding protein (lectin)”, for which the results for the “Induction of Ca2+ influx in human monocytes” value in assay [1] (1 μM galectin-3) and in assay [1] (galectin-3 concentrations lower than 1 μM) were “induced a Ca^2+ influx” and “not”, respectively. In addition, the “Extent of Ca2+ influx compared with MCP-1” value in assay [1] (1 μM galectin-3 vs 100 ng/ml MCP-1, three separate experiments) is listed as “lower than that by the chemokine”. Moreover, the “Cross-desensitization of Ca2+ influx with monocyte-reactive chemokines” value in assay [1] (1 μM galectin-3 vs MCP-1, MIP-1α, SDF-1α at 100 ng/ml, either order) is listed as “no cross-desensitization”. The “Enhancement of macrophage migration over that induced by the control medium” value in assay [2] worked out at 190%. Also, in assay [3], the “Migration of human alveolar macrophages” value is listed as “migrated towards galectin-3”. Further, the “Increase in number of monocytes in the air pouch over vehicle (saline)” value in assay [4] (setting [11]) stood at 11.6 times. Also, in assay [4] (setting [11]), the “Increase in number of neutrophils in the air pouch over vehicle (saline)” value was found to be 8.21 times. Moreover, the “Number of eosinophils in the air pouch” value in assay [4] (1 μM galectin-3, 4 h, p=0.112) is given as “not augmented significantly”. Also, the “Number of lymphocytes in the air pouch” value in assay [4] (1 μM galectin-3, 4 h, p=0.309) is “not augmented significantly”. The “Attraction of eosinophils in vitro” value in assay [5] is “does not attract eosinophils”. Besides, the “Migration of lymphocytes in vitro” value in [6] was “does not induce migration of lymphocytes”. The “Concentration required for maximum migration of neutrophils compared with monocytes” value in assay [7] was “Lower concentrations”. Moreover, the “Interaction with chemokine receptor” value in assay [8] is “Neither have interactions between galectin-3 and these four chemokine receptors been detected”; in assay [9] it was “Neither have interactions between galectin-3 and these four chemokine receptors been detected”; in [10], “Neither have interactions between galectin-3 and these four chemokine receptors been detected”.
